What all share (assay type): cell-based
Data set [1] relates to human hair follicles. As to the kind of experiment: Hair shaft elongation, hair cycle progression and toxicity in cultured human anagen VI hair follicles. The procedure: (§1) Tissue containing human hair follicles in the growth stage (anagen) of the hair cycle were obtained from elective facial surgery interventions. Hair follicles were isolated and maintained in culture according to methods well established in the art (Philpott et al. 1990, J Cell Sci. 97: 463-471). Gambogic amide (GA) was administered to pigmented cultured anagen VI hair follicle every other day over a culture period of 7 days in various concentrations comprised between 10 nano molar and 1 micro molar and compared to a control group without addition of GA.
Hair shaft elongation was measured as a way to assess possible hair growth promoting or inhibiting effects of GA. […] It is therefore concluded from this first observation that the dose range in which GA can be used is between 10 nano molar and 1 micro molar, and that GA can be used as a hair growth promoting or restoring agent.

Data set [2] has as its system melanocytes in human hair follicles. Description: Immunohistochemical analysis of melanocytes in cultured hair follicles (NKI-beteb, Ki67, Trp2, cKit).
Text: Number of melanocytes in the hair follicle can be evaluated by standard methods e.g.: immunohistochemical staining of the melanocytes with the pan-melanocyte marker NKI-beteb following by counting the NKI-beteb+ cells.
Differentiation and migration of melanocytes from the hair sheath to the hair matrix can be measured by immunohistochemical staining of c-kit+ melanocytes in the hair follicle, and by assessing their distribution within the hair follicle.
as §1
Immunohistochemical analysis of hair follicle was performed according to standard methods. Immunohistochemical staining of the pan-melanocyte marker NKI-beteb and the proliferation marker Ki67 was used to asses total number of melanocytes in cultured follicles in presence of GA. […] This increase was dose dependent. […]

The subject of data set [3] is human hair follicles. As to the kind of experiment: Macroscopic analysis of hair follicle pigmentation in cultured anagen hair follicles. The following applies: 0.1 to 1 micro molar GA, 7 day culture, versus control group. The procedure:
as §1

Consider `CC(C)=CCC[C@]1(C)C=Cc2c(O)c3c(c(CC=C(C)C)c2O1)O[C@]12C(=C[C@@H]4C[C@H]1C(C)(C)O[C@@]2(C/C=C(/C)C(N)=O)C4=O)C3=O` [GA, 2-Butenamide, 2-methyl-4-[(1R,3aS,5S,11R,14aS)-3a,4,5,7-tetrahydro-8-hydroxy-3,3,11-trimethyl-13-(3-methyl-2-buten-1-yl)-11-(4-methyl-3-penten-1-yl)-7,15-dioxo-1,5-methano-1H,3H,11H-furo[3,4-g]pyrano[3,2-b]xanthen-1-yl]-, (2Z)-], for which the signs of toxicity entry in the data set with human hair follicles [1] (concentrations as high as 1 micro) is listed as “No signs of toxicity were observed”. Further, the “hair shaft elongation compared to control” value in the data set with human hair follicles [1] (concentrations between 0.1 and 1 micro molar, 7 days culture) is on record as “increase in hair shaft elongation”. Further, the hair cycle progression result in the data set on human hair follicles [1] (with the application of GA, 7 days culture) is recorded as “no hair cycle progression was observed”. For the same molecule, the “total number of melanocytes (NKI-beteb and Ki67 staining)” value in data set [2] (between 0.1 and 0.5 micro molar, hair follicles that remained in the anagen stage) was “total number of melanocytes was increased”. For the same molecule, the “cKit labeling (marker for migrating, activated early melanocytes)” value in data set [2] (hair follicles treated between 0.1 and 1 micro molar GA) is listed as “most pronouncedly found”. Also, the “hair follicle pigmentation (macroscopic analysis)” value in the data set with human hair follicles [3] was “clear and significant improvement of hair follicle pigmentation”.

The record behind these values is patent US9445979B2, “Hair treatment composition containing gambogic acid, ester or amide” (DSM IP ASSETS B.V., priority 2010, dated 2016).
